Measurements: PMC12748766, “Structural basis for human chondroitin sulfate chain polymerization” (Nature Communications, 2025)

Target: T1, CHSY3-CHPF complex (Homo sapiens, UniProt Q70JA7)
T1 construct: secreted luminal part of both chains (TM helix removed), HEK Freestyle 293-F; N-terminal RPTP sigma signal, SUMO, His6 cut with 3C; C-terminal Avi (CHSY3), 3C site and twin-Strep (CHPF); heterodimer, expected 165 kDa; with Chondroitin sulfate synthase 2
T1 sequence (Q70JA7 157-882): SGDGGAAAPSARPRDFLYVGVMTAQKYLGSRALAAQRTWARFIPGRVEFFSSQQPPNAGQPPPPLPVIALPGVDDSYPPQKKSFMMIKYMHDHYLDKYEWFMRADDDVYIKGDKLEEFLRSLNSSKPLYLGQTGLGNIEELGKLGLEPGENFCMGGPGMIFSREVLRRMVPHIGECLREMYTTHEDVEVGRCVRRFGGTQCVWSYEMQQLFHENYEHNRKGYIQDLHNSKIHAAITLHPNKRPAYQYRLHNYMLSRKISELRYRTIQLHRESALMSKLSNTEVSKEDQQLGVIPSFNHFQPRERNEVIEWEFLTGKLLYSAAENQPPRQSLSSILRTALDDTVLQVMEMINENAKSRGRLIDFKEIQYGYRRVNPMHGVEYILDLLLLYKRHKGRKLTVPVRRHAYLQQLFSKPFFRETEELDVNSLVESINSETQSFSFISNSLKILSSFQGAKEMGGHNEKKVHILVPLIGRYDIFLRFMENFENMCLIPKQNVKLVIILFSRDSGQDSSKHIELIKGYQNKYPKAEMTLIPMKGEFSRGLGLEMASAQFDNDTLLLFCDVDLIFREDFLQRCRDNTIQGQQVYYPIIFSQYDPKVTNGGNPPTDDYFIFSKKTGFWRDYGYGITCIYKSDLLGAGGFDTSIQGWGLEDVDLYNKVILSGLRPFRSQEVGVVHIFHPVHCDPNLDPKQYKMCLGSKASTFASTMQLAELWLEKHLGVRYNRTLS
T1 sequence (Q8IZ52 81-775 partner): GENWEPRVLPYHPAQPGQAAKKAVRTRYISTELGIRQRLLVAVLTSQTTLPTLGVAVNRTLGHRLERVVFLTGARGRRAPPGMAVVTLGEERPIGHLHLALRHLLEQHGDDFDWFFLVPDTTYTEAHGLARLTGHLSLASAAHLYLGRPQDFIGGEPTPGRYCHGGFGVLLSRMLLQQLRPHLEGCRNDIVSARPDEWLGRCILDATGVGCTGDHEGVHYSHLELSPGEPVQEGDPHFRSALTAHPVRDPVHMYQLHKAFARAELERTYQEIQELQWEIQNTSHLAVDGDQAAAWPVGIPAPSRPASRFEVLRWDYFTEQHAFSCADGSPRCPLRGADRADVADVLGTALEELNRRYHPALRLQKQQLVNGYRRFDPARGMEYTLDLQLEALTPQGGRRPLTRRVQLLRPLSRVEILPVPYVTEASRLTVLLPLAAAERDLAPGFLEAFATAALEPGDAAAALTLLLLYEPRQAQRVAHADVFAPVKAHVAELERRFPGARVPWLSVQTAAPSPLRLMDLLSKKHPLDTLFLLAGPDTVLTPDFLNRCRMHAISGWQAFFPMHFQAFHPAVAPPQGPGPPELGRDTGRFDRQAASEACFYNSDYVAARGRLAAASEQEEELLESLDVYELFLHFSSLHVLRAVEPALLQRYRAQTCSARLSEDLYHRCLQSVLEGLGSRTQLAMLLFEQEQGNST
Experiment: cryo-EM structure, […] A
Assay type: binding
Details: 10 mM UDP, Mn2+, pH 6.5; bound in N-terminal GT31 (GlcA-T) active site of CHSY3

Structure (SMILES): O=c1ccn([C@@H]2O[C@H](COP(=O)(O)OP(=O)(O)O)[C@@H](O)[C@H]2O)c(=O)[nH]1 [UDP]
- cryo-EM structure, 3.0 A: We identified one UDP molecule bound in the CHSY3 GlcA-T active site.
